Literature values as cited in patent US8293290B2, “Annatto extract compositions, including geranyl geraniols and methods of use” (American River Nutrition, Inc., priority 2003, dated 2012).

What was measured:
[1] = tested on: cytochrome P450 enzymes
[2] = target: T1, PPARγ (Mus musculus, UniProt P37238); conditions: at the adipocytes
T1 construct: host or cells: 3T3-L1 adipocytes (from the cited title only)
T1 sequence (P37238 1-505): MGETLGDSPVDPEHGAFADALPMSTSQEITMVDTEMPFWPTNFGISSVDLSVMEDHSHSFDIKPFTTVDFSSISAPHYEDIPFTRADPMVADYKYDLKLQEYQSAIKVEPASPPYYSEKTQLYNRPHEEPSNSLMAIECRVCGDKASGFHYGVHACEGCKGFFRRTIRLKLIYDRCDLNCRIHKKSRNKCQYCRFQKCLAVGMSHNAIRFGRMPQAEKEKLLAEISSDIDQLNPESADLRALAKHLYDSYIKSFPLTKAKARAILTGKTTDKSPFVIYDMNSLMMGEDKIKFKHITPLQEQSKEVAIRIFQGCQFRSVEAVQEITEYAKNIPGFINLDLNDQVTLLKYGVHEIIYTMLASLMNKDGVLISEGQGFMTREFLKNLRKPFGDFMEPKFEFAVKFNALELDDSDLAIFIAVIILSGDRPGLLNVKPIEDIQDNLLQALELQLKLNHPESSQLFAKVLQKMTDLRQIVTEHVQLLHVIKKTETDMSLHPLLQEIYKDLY

[3] = target: T2, PPARα (Homo sapiens, UniProt Q07869); conditions: at the hepatocytes
T2 construct: host or cells: HepG2 hepatocytes (from the cited title only)
T2 sequence (Q07869 1-468): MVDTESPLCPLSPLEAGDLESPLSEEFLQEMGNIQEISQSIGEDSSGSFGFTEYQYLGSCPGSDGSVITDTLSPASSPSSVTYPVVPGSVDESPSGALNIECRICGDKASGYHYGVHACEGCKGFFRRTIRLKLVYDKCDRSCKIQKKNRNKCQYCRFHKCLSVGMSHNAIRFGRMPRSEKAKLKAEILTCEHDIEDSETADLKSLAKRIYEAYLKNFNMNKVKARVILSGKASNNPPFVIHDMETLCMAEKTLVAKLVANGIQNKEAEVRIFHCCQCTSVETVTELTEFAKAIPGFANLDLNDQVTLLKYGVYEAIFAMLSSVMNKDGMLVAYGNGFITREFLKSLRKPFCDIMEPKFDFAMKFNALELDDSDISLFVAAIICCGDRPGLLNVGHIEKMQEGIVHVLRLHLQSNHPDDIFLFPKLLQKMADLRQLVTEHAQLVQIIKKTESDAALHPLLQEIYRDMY

[4] = tested on: untransformed cells or normal cells
[5] = tested on: prostate cancer patients; conditions: after one year of CoQ10 supplementation
[6] = exogenous oral supplementation

inhibition of cytochrome P450 enzymes (incl. CYP3A4) [1] | PPARγ activation [2] | PPARα activation [3] | fraction of supplemental CoQ10 absorbed [6] | SMILES | cytotoxicity (cell rounding, indicator of myotoxicity) [4] | toxicity to untransformed cells or normal cells [4] | decrease of prostate mass [5] | decrease of prostate specific antigen (PSA) [5]
does not inhibit | activates | activates |  | CC(C)=CCC/C(C)=C/CC/C(C)=C/CC/C(C)=C/CO [GG, Geranyl geraniol] | not cytotoxic | not toxic |  | 
 |  |  | less than 5% | COC1=C(OC)C(=O)C(C/C=C(\C)CC/C=C(\C)CC/C=C(\C)CC/C=C(\C)CC/C=C(\C)CC/C=C(\C)CC/C=C(\C)CC/C=C(\C)CC/C=C(\C)CCC=C(C)C)=C(C)C1=O [CoQ10, coenzyme Q10] |  |  | 47% | 71%
